Measurements: the NIST ThermoML archive (doi:10.1021/je700645p)
Numbers after ± are expanded uncertainties.

Experiments:
[1] = xn = mol fraction of the nth substance listed; conditions: 81.5 kPa, Liquid
[2] = 81.5 kPa, Liquid
[3] = refractive index (Na D-line) (dimensionless); conditions: 298.15 K; 81.5 kPa; Liquid; Standard Abbe refractometry

For `CC#N` [acetonitrile] + O, the mass density ([1]; 293.15 K, x2 = 0) was 781.97 ± 0.24 kg/m3, the mass density ([1]; 293.15 K, x2 = 0.0417) was 785.6 ± 0.2 kg/m3 and the mass density ([1]; 293.15 K, x2 = 0.0833) was 789.62 ± 0.23 kg/m3. The mass density ([1]; 293.15 K, x2 = 0.1568) was 797.67 ± 0.23 kg/m3, the mass density ([1]; 293.15 K, x2 = 0.2095) was 804.01 ± 0.22 kg/m3 and the mass density ([1]; 293.15 K, x2 = 0.3247) was 819.96 ± 0.21 kg/m3. For the same compound, the mass density ([1]; 293.15 K, x2 = 0.4127) was 834.27 ± 0.2 kg/m3, the mass density ([1]; 293.15 K, x2 = 0.496) was 849.71 ± 0.18 kg/m3 and the mass density ([1]; 293.15 K, x2 = 0.5704) was 864.78 ± 0.17 kg/m3. The mass density ([1]; 293.15 K, x2 = 0.6361) was 880.12 ± 0.16 kg/m3, the mass density ([1]; 293.15 K, x2 = 0.7201) was 902.94 ± 0.14 kg/m3 and the mass density ([1]; 293.15 K, x2 = 0.7961) was 926.99 ± 0.12 kg/m3. For the same compound, the mass density ([1]; 293.15 K, x2 = 0.8788) was 956.73 ± 0.1 kg/m3, the mass density ([1]; 293.15 K, x2 = 0.9573) was 984.72 ± 0.08 kg/m3 and the mass density ([1]; 303.15 K, x2 = 0) was 771.15 ± 0.25 kg/m3. It also gave a mass density ([1]; 303.15 K, x2 = 0.0417) of 774.79 ± 0.24 kg/m3, a mass density ([1]; 303.15 K, x2 = 0.0833) of 778.83 ± 0.24 kg/m3 and a mass density ([1]; 303.15 K, x2 = 0.1568) of 786.95 ± 0.23 kg/m3. For the same compound, the mass density ([1]; 303.15 K, x2 = 0.2095) was 793.33 ± 0.23 kg/m3, the mass density ([1]; 303.15 K, x2 = 0.3247) was 809.63 ± 0.22 kg/m3 and the mass density ([1]; 303.15 K, x2 = 0.4127) was 824.27 ± 0.2 kg/m3. It also gave a mass density ([1]; 303.15 K, x2 = 0.496) of 840.11 ± 0.19 kg/m3, a mass density ([1]; 303.15 K, x2 = 0.5704) of 855.57 ± 0.18 kg/m3 and a mass density ([1]; 303.15 K, x2 = 0.6361) of 871.32 ± 0.17 kg/m3. For the same compound, the mass density ([1]; 303.15 K, x2 = 0.7201) was 894.74 ± 0.15 kg/m3, the mass density ([1]; 303.15 K, x2 = 0.7961) was 919.47 ± 0.13 kg/m3 and the mass density ([1]; 303.15 K, x2 = 0.8788) was 950.35 ± 0.1 kg/m3. For the same compound, the mass density ([1]; 303.15 K, x2 = 0.9573) was 980.43 ± 0.08 kg/m3, the mass density ([1]; 313.15 K, x2 = 0) was 760.2 ± 0.3 kg/m3 and the mass density ([1]; 313.15 K, x2 = 0.0417) was 763.85 ± 0.25 kg/m3. The mass density ([1]; 313.15 K, x2 = 0.0833) was 767.91 ± 0.25 kg/m3, the mass density ([1]; 313.15 K, x2 = 0.1568) was 776.09 ± 0.24 kg/m3 and the mass density ([1]; 313.15 K, x2 = 0.2095) was 782.6 ± 0.2 kg/m3. The mass density ([1]; 313.15 K, x2 = 0.3247) was 799.11 ± 0.22 kg/m3, the mass density ([1]; 313.15 K, x2 = 0.4127) was 814.05 ± 0.21 kg/m3 and the mass density ([1]; 313.15 K, x2 = 0.496) was 830.25 ± 0.2 kg/m3. The mass density ([1]; 313.15 K, x2 = 0.5704) was 846.08 ± 0.19 kg/m3, the mass density ([1]; 313.15 K, x2 = 0.6361) was 862.22 ± 0.17 kg/m3 and the mass density ([1]; 313.15 K, x2 = 0.7201) was 886.22 ± 0.15 kg/m3. For the same compound, the mass density ([1]; 313.15 K, x2 = 0.7961) was 911.61 ± 0.13 kg/m3, the mass density ([1]; 313.15 K, x2 = 0.8788) was 943.52 ± 0.11 kg/m3 and the mass density ([1]; 313.15 K, x2 = 0.9573) was 975.45 ± 0.08 kg/m3. It also gave a mass density ([1]; 323.15 K, x2 = 0) of 749.12 ± 0.26 kg/m3, a mass density ([1]; 323.15 K, x2 = 0.0417) of 752.77 ± 0.26 kg/m3 and a mass density ([1]; 323.15 K, x2 = 0.0833) of 756.84 ± 0.26 kg/m3. It also gave a mass density ([1]; 323.15 K, x2 = 0.1568) of 765.06 ± 0.25 kg/m3, a mass density ([1]; 323.15 K, x2 = 0.2095) of 771.62 ± 0.25 kg/m3 and a mass density ([1]; 323.15 K, x2 = 0.3247) of 788.38 ± 0.23 kg/m3. The mass density ([1]; 323.15 K, x2 = 0.4127) was 803.6 ± 0.2 kg/m3, the mass density ([1]; 323.15 K, x2 = 0.496) was 820.14 ± 0.21 kg/m3 and the mass density ([1]; 323.15 K, x2 = 0.5704) was 836.32 ± 0.19 kg/m3. The mass density ([1]; 323.15 K, x2 = 0.6361) was 852.82 ± 0.18 kg/m3, the mass density ([1]; 323.15 K, x2 = 0.7201) was 877.38 ± 0.16 kg/m3 and the mass density ([1]; 323.15 K, x2 = 0.7961) was 903.39 ± 0.14 kg/m3. The mass density ([1]; 323.15 K, x2 = 0.8788) was 936.28 ± 0.12 kg/m3, the mass density ([1]; 323.15 K, x2 = 0.9573) was 969.87 ± 0.09 kg/m3 and the mass density ([1]; 333.15 K, x2 = 0) was 737.87 ± 0.27 kg/m3. It also gave a mass density ([1]; 333.15 K, x2 = 0.0417) of 741.52 ± 0.27 kg/m3, a mass density ([1]; 333.15 K, x2 = 0.0833) of 745.6 ± 0.3 kg/m3 and a mass density ([1]; 333.15 K, x2 = 0.1568) of 753.85 ± 0.26 kg/m3. For the same compound, the mass density ([1]; 333.15 K, x2 = 0.2095) was 760.47 ± 0.25 kg/m3, the mass density ([1]; 333.15 K, x2 = 0.3247) was 777.43 ± 0.24 kg/m3 and the mass density ([1]; 333.15 K, x2 = 0.4127) was 792.91 ± 0.23 kg/m3. It also gave a mass density ([1]; 333.15 K, x2 = 0.496) of 809.77 ± 0.21 kg/m3, a mass density ([1]; 333.15 K, x2 = 0.5704) of 826.29 ± 0.2 kg/m3 and a mass density ([1]; 333.15 K, x2 = 0.6361) of 843.13 ± 0.19 kg/m3. It also gave a mass density ([1]; 333.15 K, x2 = 0.7201) of 868.22 ± 0.17 kg/m3, a mass density ([1]; 333.15 K, x2 = 0.7961) of 894.84 ± 0.15 kg/m3 and a mass density ([1]; 333.15 K, x2 = 0.8788) of 928.67 ± 0.12 kg/m3. The mass density ([1]; 333.15 K, x2 = 0.9573) was 963.64 ± 0.09 kg/m3.
For `CC#N` [acetonitrile] + C[S+](C)[O-], the mass density ([1]; 293.15 K, x1 = 1) was 781.97 ± 0.47 kg/m3, the mass density ([1]; 303.15 K, x1 = 1) was 771.15 ± 0.49 kg/m3 and the mass density ([1]; 313.15 K, x1 = 1) was 760.2 ± 0.5 kg/m3. For the same compound, the mass density ([1]; 323.15 K, x1 = 1) was 749.12 ± 0.52 kg/m3 and the mass density ([1]; 333.15 K, x1 = 1) was 737.87 ± 0.54 kg/m3.
`O` [water] + CC#N showed a mass density ([1]; 323.15 K, x1 = 1) of 988.03 ± 0.07 kg/m3 and a mass density ([1]; 333.15 K, x1 = 1) of 983.19 ± 0.08 kg/m3.
`C[S+](C)[O-]` [dimethyl sulfoxide] showed a mass density ([2]; 293.15 K) of 1100.41 ± 0.34 kg/m3, a mass density ([2]; 303.15 K) of 1090.37 ± 0.32 kg/m3 and a mass density ([2]; 313.15 K) of 1080.34 ± 0.31 kg/m3. It also gave a mass density ([2]; 323.15 K) of 1070.3 ± 0.29 kg/m3, a mass density ([2]; 333.15 K) of 1060.27 ± 0.27 kg/m3 and a refractive index [3] of 1.4767 ± 0.0008.
